# Measured values as given in patent US6673354B2, “Compositions and methods for treating papillomavirus-infected cells” (priority 1998, dated 2004).
# Where no end group is shown, it is not given here.
# Key:
# HPV-16 E1-E2 interaction = biological target: T1, HPV-16 E1-E2 interaction (Human papillomavirus type 16, UniProt P03114); test: In vitro HPV E1-E2 competition binding assay (HPV-16 EE-E1C and HPV-16 E2); details: 10 μM, 20 μM, and 40 μM peptide, FIG. 14
# T1 construct: The carboxy terminus of HPV16-E1, from amino acid 424 to 649, is the minimal domain; made in house; host or cells: E2: nuclear extract of baculovirus-infected Hi-Five cells
# T1 sequence (P03114 whole entry, looked up): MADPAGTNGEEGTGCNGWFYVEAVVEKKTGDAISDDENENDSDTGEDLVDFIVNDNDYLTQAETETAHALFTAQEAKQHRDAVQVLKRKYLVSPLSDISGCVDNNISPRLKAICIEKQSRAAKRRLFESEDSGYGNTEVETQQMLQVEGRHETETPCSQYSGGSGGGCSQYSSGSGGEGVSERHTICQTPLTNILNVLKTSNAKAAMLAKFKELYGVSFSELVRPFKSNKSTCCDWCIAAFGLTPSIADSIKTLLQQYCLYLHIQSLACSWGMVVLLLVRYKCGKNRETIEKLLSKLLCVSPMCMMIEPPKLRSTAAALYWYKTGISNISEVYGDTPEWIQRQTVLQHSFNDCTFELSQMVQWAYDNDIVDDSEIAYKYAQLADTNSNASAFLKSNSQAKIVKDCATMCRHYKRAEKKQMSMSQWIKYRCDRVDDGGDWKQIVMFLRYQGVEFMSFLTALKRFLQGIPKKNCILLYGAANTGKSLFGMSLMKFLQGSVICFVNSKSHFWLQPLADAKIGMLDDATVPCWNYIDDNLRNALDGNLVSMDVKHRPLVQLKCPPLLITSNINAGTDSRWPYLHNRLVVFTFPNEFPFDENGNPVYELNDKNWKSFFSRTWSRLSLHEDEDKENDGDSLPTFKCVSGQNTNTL
# Experimental: Use of EE-EIC. The carboxy terminus of HPV16-E1, from amino acid 424 to 649, is the minimal domain necessary for interaction with E2 (Yasugi et al. 1997). An epitope tagged form of this domain (EE-EIC) was used in the E1-E2 interaction assays presented here.
# In vitro HPV EI-E2 competition binding assay. HPV-16 EE-EIC (240 ng) in 500 1 NET gel buffer (50 mM Tris-HCI [pH 7.5 ], 150 mM NaCl, 0.1% NP-40, 1 mM EDTA, 0.25% gelatin) were pre-incubated with 0 μM, 10 μM, 20 μM, or 40 μM peptide for 10 minutes on ice. The final concentration of DMSO, the peptide solvent, was kept constant in all samples. Nuclear extract containing HPV-16 E2 was then added, and the mixture was incubated with shaking at 4° C. for 1 hour. Anti-EE monoclonal antibody (1 mg/ml) (BAbCo) was added, and the mixture was incubated with shaking for 30 minutes. Immune complexes were precipitated with protein G-agarose beads for an additional 30 minutes at 4° C. The beads were washed with 500 l ice-cold NET-gel buffer three times.
# [1] = biological target: T2, interaction between HPV16 E1 and E2 (Human papillomavirus type 16, UniProt P03114); test: In vitro HPV E1-E2 binding assay (co-immunoprecipitation / Western blot), HPV16 E1 and HPV16 E2; details: increasing peptide concentrations, FIG. 6A
# T2 construct: made in house; host or cells: Hi-Five insect cells infected with recombinant baculovirus (pVL1392); nuclear extracts
# T2 sequence (P03114 whole entry, looked up): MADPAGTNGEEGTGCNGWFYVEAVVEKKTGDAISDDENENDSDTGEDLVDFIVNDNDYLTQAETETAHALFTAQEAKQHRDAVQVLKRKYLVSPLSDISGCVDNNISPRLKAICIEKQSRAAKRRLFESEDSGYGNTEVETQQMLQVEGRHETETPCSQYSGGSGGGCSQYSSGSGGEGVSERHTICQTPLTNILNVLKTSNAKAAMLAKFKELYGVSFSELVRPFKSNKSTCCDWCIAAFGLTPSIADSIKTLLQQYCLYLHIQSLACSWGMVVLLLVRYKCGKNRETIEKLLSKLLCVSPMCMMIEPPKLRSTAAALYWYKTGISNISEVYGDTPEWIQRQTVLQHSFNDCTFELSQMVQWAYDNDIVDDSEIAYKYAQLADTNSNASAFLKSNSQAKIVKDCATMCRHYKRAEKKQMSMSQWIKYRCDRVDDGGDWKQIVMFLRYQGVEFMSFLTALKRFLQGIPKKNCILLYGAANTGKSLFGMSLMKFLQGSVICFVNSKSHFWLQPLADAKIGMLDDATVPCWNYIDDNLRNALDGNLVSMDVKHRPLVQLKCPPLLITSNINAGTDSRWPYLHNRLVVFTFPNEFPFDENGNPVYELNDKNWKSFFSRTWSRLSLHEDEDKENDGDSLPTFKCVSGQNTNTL
# Experimental: (§1) In vitro HPV E1-E2 binding assay. 300-500 ng protein from HPV16 or HPV11 EE-E1 expressing recombinant baculovirus infected cell nuclear extracts and 80-120 ng from HPV E2 baculovirus infected cell nuclear extracts were incubated in 500 μl NET-gel buffer (50 mM Tris-HCl pH7.5, 150 mM NaCl, 0.1% NP-40, 1 mM EDTA, 0.25% gelatin) at 4° C. for one hour. 1-2 μg anti-EE monoclonal antibody was added and incubated with shaking at 4° C. for one hour. Immune complexes were precipitated with protein-G agarose beads and washed twice for 30 minutes with ice cold NET-gel buffer. Precipitated proteins were detected by Western blot using appropriate primary antibodies and anti-rabbit IgG HRP or anti-mouse IgG HRP (Amersham). Membranes were blocked for one hour in TNET (10 mM Tris 7.5, 2.5 mM EDTA, 50 mM NaCl, 0.1% Tween-20) containing 4% (w/v) dry milk. Washes and antibody reactions were carried out in TNET, and proteins were visualized by chemiluminescence (Reneaissance ECL, NEN) and autoradiography. Bands were quantitated using the NIH image program.
# (§2) Therefore, we reasoned that a peptide encompassing this domain of HPV16 E2 might inhibit interaction between HPV16 E1 and E2, thereby inhibiting HPV16 DNA replication (FIG. 5). In order to test this possibility, HPV16 E2 and epitope tagged full length HPV16 E1 (EE16-E1) proteins were expressed separately using baculovirus vectors. EE-E1 and associated E2 proteins were immunoprecipitated using an anti-EE epitope monoclonal antibody. Precipitated E2 was detected by Western blot using polyclonal antiserum raised to the DNA binding domain of HPV16 E2 (35). As shown in lane 2 of FIG. 6A, E2 co-immunoprecipitated with EE16-E1, but was not precipitated by the EE epitope antibody in the absence of EE16-E1 (lane 1). Peptides encompassing HPV16 E2 amino acids 29-51 (E2N-WP23) or residues 33-47 (E2N-WP15) of HPV16 E2 were then tested for inhibition of E1-E2 interaction. These peptide sequences were derived from the sequence of HPV16 E2, and were based on an alignment of amino terminal residues that are conserved among the papillomavirus E2 proteins (FIG. 5). […] Both the HPV16 E2 protein itself and the E2 derived peptides act specifically in these assays, since the E39A replication defective HPV16 E2 mutant bound only slightly to EE16-E1 (lanes 14). […] These peptides are named E2N-MP23 and E2N-MP15, respectively (see FIG. 5). […] We have previously shown that a domain spanning amino acids 421-647 of the HPV16 E1 carboxy terminus is necessary and sufficient for E2 interaction (45).
# [2] = system: in vitro HPV16 DNA replication; test: In vitro replication of HPV16 DNA (293 cell extract, EE-E1, HPV16 E2); assay type: biochemical; details: 40 ng EE-E1 and 6 ng HPV16 E2, FIG. 7
# Experimental: In vitro replication reactions. In vitro replication reactions were essentially as described by Kuo et al. (18) in 25 μl reactions at 37° C. for indicated times. Standard reactions were for 2 hours, and were terminated by addition of 200 μl stop solution (20 mM Tris-HCl pH 7.5, 10 mM EDTA, 0.1% SDS, and 20 μg/ml RNase A). After incubation at 37° C. for 15 minutes, proteinase K was added (200 μg/ml) and incubation was continued 30 minutes. Samples were extracted with 250 μl phenol/chloroform/isoamyl alcohol (25:24:1), ethanol precipitated, washed with 70% ethanol, dried, resuspended in 20-30μl TE, and analyzed on a 0.8% agarose gel (TAE). The agarose gel was dried onto Hybond N+ membrane (Amersham), and replicated DNA was visualized by autoradiography. Bands were quantitated by Phosphorimager analysis. Replication templates were pKS7838-7905 (nt7838-7905/1-130) containing the HPV16 replication origin, and pUC7874-99 containing the HPV11 origin of replication (nt7874-7933/1-99). pUC7874-99 was a generously provided by Dr. Louise Chow.
# We sought to establish a system for the study of HPV16 DNA replication in vitro, and to determine whether specific interaction between HPV16 E1 and E2 was required for HPV16 DNA replication in this system. […] As has been documented for other papillomavirus E1 proteins, some replication was observed using relatively large amounts of E1 in the absence of E2 (lanes 2 through 7) (6, 16, 22, 33, 40, 48). […] Replication in this assay is ori-dependent, since the small amount of replication of the pKS plasmid lacking the HPV16 origin detected at high concentrations of EE-E1 (FIG. 3B, lanes 1-6) was not stimulated by E2 (FIG. 1B, lanes 7-12).
# Since the E2N-WP23 and E2N-WP 15 peptides could inhibit interaction between […] E1 and E2, their ability to inhibit in vitro HPV16 DNA replication was also tested (FIGS. 7A and 7B).
# [3] = biological target: T3, interaction between HPV16 E1 and E2 (Human papillomavirus type 16, UniProt P03114); test: In vitro HPV E1-E2 binding assay (co-immunoprecipitation / Western blot), HPV16 E1 and HPV16 E2
# T3 construct: made in house; host or cells: Hi-Five insect cells infected with recombinant baculovirus (pVL1392); nuclear extracts
# Experimental: as §1, §2
Substance,inhibition of HPV-16 E1-E2 interaction (E1-E2 complex formation) (HPV-16 E1-E2 interaction),inhibition of HPV16 E1-E2 interaction [1],inhibition of in vitro HPV16 DNA replication [2],"inhibition of HPV16 E1-E2 interaction ([3]; increasing peptide concentrations, FIG. 6A)",mode of inhibition of E1-E2 interaction ([3]; inhibition plotted as a function of substrate concentration (data not shown))
GRKKRRQRRRPPQCGGWKHMRLECAIYYKAR (cysteine pairing not given here) [Tat-WP],not inhibited,,,,
"E2N-MP23: 23-mer peptide of HPV16 E2 aa 29-51 containing alanine at the position analogous to E39 (HIDYWKHMRLACAIYYKAREMGF; UniProt P03120 29-51, looked up, variant E39A)",,did not inhibit E1-E2 interaction at concentrations at which the wild type peptide could do so,wild type peptides inhibited replication much more effectively than the respective E39A substituted analog,,
ERQIKIWFQNRRMKWKKGGWKHMRLECAIYYKAR [Ant-WP],comparable to that of wild-type peptide,,,,
HIDYWKHMRLECAIYYKAREMGF [E2N-WP23],,,could effectively inhibit in vitro replication,inhibitory effects,competitive inhibition
